Source: patent US5567704A, “R-enatiomerically pure hydroxylated xanthine compounds to treat baldness” (priority 1995, dated 1996)

What was measured:
murine B-cell = experiment: B-cell proliferation stimulated by anti-mu antibody and/or IL-4; type: cell-based; conditions: anti-mu antibody crosslinked and/or IL-4, FIG. 2
Description: A B-cell proliferation assay determines the effect of the inventive compounds on inhibiting proliferation of stimulated B-cells, stimulated by an anti-mu antibody (40 μg/ml), IL-4 or PMA (2.5 nM). Ramos B-cell tumor cells or murine splenocytes can be incubated with a stimulating agent, an inventive compound and tritiated thymidine to measure inhibition of cell proliferation caused by the stimulating agent.

thymocytes = experiment: thymocyte costimulator assay (ConA and IL-1α or IL-2); type: cell-based, mice; conditions: drug added two hours prior, FIG. 3
Description: A thymocyte costimulator assay is conducted to evaluate the inventive compounds to inhibit activation and proliferation of thymocytes caused by stimulation with Con A and interleukin-1 (IL-1), or […]. Thymuses are obtained from mice (e.g., female Balb/C mice) and the thymuses are removed and dissociated into culture media (e.g., RPMI 1640 without serum supplementation). The dissociated thymus tissue and cell suspension is transferred to centrifuge tubes and allowed to settle, washed with HBSS and resuspended in serum-supplemented culture media (e.g., RPMI 1640 with 10% fetal calf serum). Any contaminating red cells are lysed, and viable cells are resuspended and counted. Thymocytes are plated (e.g., 96-well plates at a density of 2×10^5 cells/well) and a stimulating agent, such as Con A, IL-1 (e.g., IL-1α) or IL-2 is added to the well. The cells are incubated for 4 days at 37° C. On the fourth day, the cells are pulsed with tritiated thymidine and cell proliferation determined. Inventive compounds are added at the time of stimulating agent addition.
CT1501R was added to the cells at the doses indicated two hours prior to activation with ConA and IL-1α or IL-2. Background counts were less than 200 cpm.

[1] = test system: TNF-α release from IL-1α activated PEC; experiment: TNF-α release from IL-1α-activated peritoneal macrophages (ELISA); type: cell-based, murine; conditions: Mus musculus, Peritoneal macrophage, 50 ng/ml IL-1α, 24, 48 or 72 hrs, FIG. 20, read-out: inhibition of induced levels of TNF-α
Description: Murine peritoneal exudate cell macrophages (PEC) were isolated by perfusion of mouse peritoneum and plated into 96-well trays at 5×10^5 cells per well. Cells were stimulated with 5 μg/ml Salmonella abortus equi -derived endotoxin (LPS; Sigma Chemical Co., L-1887) or […] IL-1α (Genzyme; Cambridge, Mass.) with or without the addition of CT1501R added to the cultures one hour prior to addition of the stimulus. At various times thereafter, supernatants were removed and levels of either TNF-α or IL-1α were assayed using commercial 96-well microtiter immunoassay kits (Genzyme; TNF; Endogen, Boston, Mass.; IL-1α) according to manufacturer's specifications. For the adhesion studies, early passage human umbilical vein endothelial cells (HUVEC) were obtained. from commercial suppliers (Clonetics, San Diego, Calif. or Cell Systems, Seattle, Wash.) and cultured in defined, Hepes buffered, serum free medium (Cell Systems, cat 301-180) supplemented with acidic FGF (Cell Systems cat 401-111). 4000 cells were plated into each well of a 96-well microtiter plate and allowed to incubate for 72 hrs at 37° C. […] After addition of […] Hanks Balanced Salt Solution (HBSS), the microtiter plate was then analyzed on a Millipore Cytofluor fluorescent plate reader (excitation 488 nm; emission 525 nm). […]

TNF-α = experiment: mouse plasma TNF-α ELISA after endotoxin; type: in vivo; conditions: for Plasma TNF: LPS + CT-1501R
Description: For ELISA measurements of cytokine levels in plasma, blood was collected by retro-orbital or cardiac puncture of anesthetized mice, immediately centrifuged and the EDTA plasma stored at -70° C. Particulate free plasma was thawed on ice and cytokine levels determined utilizing commercial ELISA assays with normal mouse plasma used to generate standard curves. Murine tumor necrosis factor-α and interleukin-1αkits were purchased from Genzyme (Cambridge, Mass.) and Endogen (Boston, Mass.), respectively. Each data point was an average of two ELISA measurements made from EDTA […] pooled from three mice. The data summarized in Table 3 were compiled from two independent experiments; data from Table 4 and 5 were from single experiments of three mice per data point.
Levels of TNF-α, IL-1α and IL-6 were measured in the plasma of mice as a function of time following treatment with S. abortus endotoxin. […] TNF-α levels peaked within 1 hour of treatment of endotoxin (Table 4 and FIG. 6). Treatment of the mice with CT1501R decreased the levels of TNF-α in the EDTA plasma of endotoxin treated mice at all time points measured. In particular, peak levels of TNF-α at 0.5 and 1 hour post endotoxin were decreased 2.5 and 2.6 fold respectively in the CT1501R treated mice.

For `C[C@@H](O)CCCCn1c(=O)c2c(ncn2C)n(C)c1=O` [CT1501R, (R)-1-(5-hydroxyhexyl)-3,7-dimethylxanthine], the “inhibition of B-cell proliferation” value (murine B-cell) was “inhibited B-cell proliferation”, the “inhibition of thymocyte proliferation” value (thymocytes) was “inhibited thymocyte proliferation in a dose-response manner” and the inhibition at 250 µM [1] was 50 to 70%. The “fold decrease of plasma TNF-α” value (TNF-α; 0.5 hour post endotoxin) was 2.5 fold, the “fold decrease of plasma TNF-α” value (TNF-α; 1 hour post endotoxin) was 2.6 fold and the “Plasma TNF” value (TNF-α; 0 hours post LPS) was 0 pg/mL. The “Plasma TNF” value (TNF-α; 0.17 hours post LPS) was 6 pg/mL, the “Plasma TNF” value (TNF-α; 0.5 hours post LPS) was 390 pg/mL and the “Plasma TNF” value (TNF-α; 1 hour post LPS) was 1728 pg/mL. The “Plasma TNF” value (TNF-α; 2 hours post LPS) was 940 pg/mL, the “Plasma TNF” value (TNF-α; 4 hours post LPS) was 400 pg/mL and the “Plasma TNF” value (TNF-α; 6 hours post LPS) was 350 pg/mL.
